# Molecular target: human CXCR3A (Homo sapiens (Human), UniProt P49682)
# Assay: FLIPR assay (inhibition of CXCL10-induced calcium signal)
# Type: cell-based
# Details: engineered CHO-K1 cells expressing human CXCR3A coupled to Galpha(16); Fluo-4-AM; CXCL10 agonist 20 nM; mean values where determined several times
# Summary of the method: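 CHO-K1 cells expressing human CXCR3A coupled to Gα16 were loaded with Fluo-4-AM for 1 h in HBSS/20 mM Hepes pH 7.4 with probenecid. Compound was added, then CXCL10 (20 nM as dispensed). Baseline-subtracted peak fluorescence gave inhibition curves and IC50, averaged over repeats.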
# human CXCR3A, sequence (P49682 whole entry): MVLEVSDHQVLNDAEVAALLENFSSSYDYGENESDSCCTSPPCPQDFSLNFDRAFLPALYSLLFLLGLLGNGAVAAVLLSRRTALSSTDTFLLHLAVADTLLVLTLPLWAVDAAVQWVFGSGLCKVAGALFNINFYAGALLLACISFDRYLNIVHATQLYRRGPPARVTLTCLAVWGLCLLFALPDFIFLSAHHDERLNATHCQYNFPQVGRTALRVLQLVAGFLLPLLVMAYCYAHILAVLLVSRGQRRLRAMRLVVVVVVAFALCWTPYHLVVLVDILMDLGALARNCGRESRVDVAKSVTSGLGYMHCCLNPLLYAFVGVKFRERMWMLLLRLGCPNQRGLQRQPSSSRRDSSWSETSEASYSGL
row,Compound,IC50 [nM]
1,"C[C@@H]1CN(c2cccc3c2CN(c2ccc(C(F)(F)F)cn2)CC3)CCN1C(=O)Cn1cnc2cccnc21 [Example 103, 2-Imidazo[4,5-b]pyridin-3-yl-1-{(R)-2-methyl-4-[2-(5-trifluoromethyl-pyridin-2-yl)-1,2,3,4-tetrahydro-isoquinolin-8-yl]-piperazin-1-yl}-ethanone]",20.7
2,"C[C@@H]1CN(c2cccc3c2CN(c2ccccn2)CC3)CCN1C(=O)Cn1cnc2cccnc21 [Example 104, 2-Imidazo[4,5-b]pyridin-3-yl-1-[(R)-2-methyl-4-(2-pyridin-2-yl-1,2,3,4-tetrahydro-isoquinolin-8-yl)-piperazin-1-yl]-ethanone]",9.71
3,"COc1ccc(N2CCc3cccc(N4CCN(C(=O)Cn5cnc6cccnc65)[C@H](C)C4)c3C2)cc1 [Example 105, 2-Imidazo[4,5-b]pyridin-3-yl-1-{(R)-4-[2-(4-methoxy-phenyl)-1,2,3,4-tetrahydro-isoquinolin-8-yl]-2-methyl-piperazin-1-yl}-ethanone]",20.3
4,"C[C@@H]1CN(c2cccc3c2CN(c2cnc(C(F)(F)F)nc2)CC3)CCN1C(=O)Cn1cnc2cccnc21 [Example 107, 2-Imidazo[4,5-b]pyridin-3-yl-1-{(R)-2-methyl-4-[2-(2-trifluoromethyl-pyrimidin-5-yl)-1,2,3,4-tetrahydro-isoquinolin-8-yl]-piperazin-1-yl}-ethanone]",1.74
5,"C[C@@H]1CN(c2cccc3c2CN(c2cnc(OCC(F)(F)F)nc2)CC3)CCN1C(=O)Cn1cnc2cccnc21 [Example 112, 2-Imidazo[4,5-b]pyridin-3-yl-1-((R)-2-methyl-4-{2-[2-(2,2,2-trifluoro-ethoxy)-pyrimidin-5-yl]-1,2,3,4-tetrahydro-isoquinolin-8-yl}-piperazin-1-yl)-ethanone]",2.98
6,"C[C@@H]1CN(c2cccc3c2CN(c2nccs2)CC3)CCN1C(=O)Cn1cnc2cccnc21 [Example 113, 2-Imidazo[4,5-b]pyridin-3-yl-1-[(R)-2-methyl-4-(2-thiazol-2-yl-1,2,3,4-tetrahydro-isoquinolin-8-yl)-piperazin-1-yl]-ethanone]",12.2
7,"C[C@@H]1CN(c2cccc3c2CN(c2ncc(-c4ccccc4)s2)CC3)CCN1C(=O)Cn1cnc2cccnc21 [Example 115, 2-Imidazo[4,5-b]pyridin-3-yl-1-{(R)-2-methyl-4-[2-(5-phenyl-thiazol-2-yl)-1,2,3,4-tetrahydro-isoquinolin-8-yl]-piperazin-1-yl}-ethanone]",13.3
8,"Cc1nc(N2CCc3cccc(N4CCN(C(=O)Cn5cnc6cccnc65)[C@H](C)C4)c3C2)sc1C [Example 116, 1-{(R)-4-[2-(4,5-Dimethyl-thiazol-2-yl)-1,2,3,4-tetrahydro-isoquinolin-8-yl]-2-methyl-piperazin-1-yl}-2-imidazo[4,5-b]pyridin-3-yl-ethanone]",15.1
9,"C[C@@H]1CN(c2cccc3c2CN(c2nc(C#N)cs2)CC3)CCN1C(=O)Cn1cnc2cccnc21 [Example 117, 2-{8-[(R)-4-(2-Imidazo[4,5-b]pyridin-3-yl-acetyl)-3-methyl-piperazin-1-yl]-3,4-dihydro-1H-isoquinolin-2-yl}-thiazole-4-carbonitrile]",3.7
10,"COc1ccc(N2CCc3cccc(N4CCN(C(=O)Cn5cnc6cccnc65)[C@H](C)C4)c3C2)nn1 [Example 119, 2-Imidazo[4,5-b]pyridin-3-yl-1-{(R)-4-[2-(6-methoxy-pyridazin-3-yl)-1,2,3,4-tetrahydro-isoquinolin-8-yl]-2-methyl-piperazin-1-yl}-ethanone]",10.9
11,"COc1nc(OC)nc(N2CCc3cccc(N4CCN(C(=O)Cn5cnc6cccnc65)[C@H](C)C4)c3C2)n1 [Example 121, 1-{(R)-4-[2-(4,6-Dimethoxy-[1,3,5]triazin-2-yl)-1,2,3,4-tetrahydro-isoquinolin-8-yl]-2-methyl-piperazin-1-yl}-2-imidazo[4,5-b]pyridin-3-yl-ethanone]",3.39
12,"COc1nccc(N2CCc3cccc(N4CCN(C(=O)Cn5cnc6cccnc65)[C@H](C)C4)c3C2)n1 [Example 122, 2-Imidazo[4,5-b]pyridin-3-yl-1-{(R)-4-[2-(2-methoxy-pyrimidin-4-yl)-1,2,3,4-tetrahydro-isoquinolin-8-yl]-2-methyl-piperazin-1-yl}-ethanone]",27.9
13,"C[C@@H]1CN(c2cccc3c2CN(c2nc(-c4ccccc4)cs2)CC3)CCN1C(=O)Cn1cnc2cccnc21 [Example 124, 2-Imidazo[4,5-b]pyridin-3-yl-1-{(R)-2-methyl-4-[2-(4-phenyl-thiazol-2-yl)-1,2,3,4-tetrahydro-isoquinolin-8-yl]-piperazin-1-yl}-ethanone]",34.4
14,"Cc1nc(C)n(CC(=O)N2CCN(c3cccc4c3CN(c3cnc(C(F)(F)F)nc3)CC4)C[C@H]2C)n1 [Example 125, 2-(3,5-Dimethyl-[1,2,4]triazol-1-yl)-1-{(R)-2-methyl-4-[2-(2-trifluoromethyl-pyrimidin-5-yl)-1,2,3,4-tetrahydro-isoquinolin-8-yl]-piperazin-1-yl}-ethanone]",47.4
15,"Cc1nc(C)n(CC(=O)N2CCN(c3cccc4c3CN(c3cnc(C5CC5)nc3)CC4)C[C@H]2C)n1 [Example 126, 1-{(R)-4-[2-(2-Cyclopropyl-pyrimidin-5-yl)-1,2,3,4-tetrahydro-isoquinolin-8-yl]-2-methyl-piperazin-1-yl}-2-(3,5-dimethyl-[1,2,4]triazol-1-yl)-ethanone]",3.98
16,"CCOc1ncc(N2CCc3cccc(N4CCN(C(=O)Cn5nc(C)nc5C)[C@H](C)C4)c3C2)cn1 [Example 127, 2-(3,5-Dimethyl-[1,2,4]triazol-1-yl)-1-{(R)-4-[2-(2-ethoxy-pyrimidin-5-yl)-1,2,3,4-tetrahydro-isoquinolin-8-yl]-2-methyl-piperazin-1-yl}-ethanone]",33.1
17,"CCOc1ncc(N2CCc3cccc(N4CCN(C(=O)Cn5nc(C)cc5C)[C@H](C)C4)c3C2)cn1 [Example 128, 2-(3,5-Dimethyl-pyrazol-1-yl)-1-{(R)-4-[2-(2-ethoxy-pyrimidin-5-yl)-1,2,3,4-tetrahydro-isoquinolin-8-yl]-2-methyl-piperazin-1-yl}-ethanone]",7.94
18,"CCOc1ncc(N2CCc3c(F)ccc(N4CCN(C(=O)Cn5cnc6cccnc65)[C@H](C)C4)c3C2)cn1 [Example 129, 1-{(R)-4-[2-(2-Ethoxy-pyrimidin-5-yl)-5-fluoro-1,2,3,4-tetrahydro-isoquinolin-8-yl]-2-methyl-piperazin-1-yl}-2-imidazo[4,5-b]pyridin-3-yl-ethanone]",3.1
19,"CCOc1ncc(N2CCc3c(F)ccc(N4CCN(C(=O)Cn5nc(C)cc5C)[C@H](C)C4)c3C2)cn1 [Example 130, 2-(3,5-Dimethyl-pyrazol-1-yl)-1-{(R)-4-[2-(2-ethoxy-pyrimidin-5-yl)-5-fluoro-1,2,3,4-tetrahydro-isoquinolin-8-yl]-2-methyl-piperazin-1-yl}-ethanone]",5.7

# Now from value to compound:
row,IC50 [nM],Compound
1,5.46,"C[C@@H]1CN(c2cccc3c2CN(c2cncnc2)CC3)CCN1C(=O)Cn1cnc2cccnc21 [Example 106, 2-Imidazo[4,5-b]pyridin-3-yl-1-[(R)-2-methyl-4-(2-pyrimidin-5-yl-1,2,3,4-tetrahydro-isoquinolin-8-yl)-piperazin-1-yl]-ethanone]"
2,32.6,"Cc1cnc(N2CCc3cccc(N4CCN(C(=O)Cn5cnc6cccnc65)[C@H](C)C4)c3C2)nc1 [Example 108, 2-Imidazo[4,5-b]pyridin-3-yl-1-{(R)-2-methyl-4-[2-(5-methyl-pyrimidin-2-yl)-1,2,3,4-tetrahydro-isoquinolin-8-yl]-piperazin-1-yl}-ethanone]"
3,12.5,"Cc1ncc(N2CCc3cccc(N4CCN(C(=O)Cn5cnc6cccnc65)[C@H](C)C4)c3C2)cn1 [Example 109, 2-Imidazo[4,5-b]pyridin-3-yl-1-{(R)-2-methyl-4-[2-(2-methyl-pyrimidin-5-yl)-1,2,3,4-tetrahydro-isoquinolin-8-yl]-piperazin-1-yl}-ethanone]"
4,0.85,"CCCc1ncc(N2CCc3cccc(N4CCN(C(=O)Cn5cnc6cccnc65)[C@H](C)C4)c3C2)cn1 [Example 110, 2-Imidazo[4,5-b]pyridin-3-yl-1-{(R)-2-methyl-4-[2-(2-propyl-pyrimidin-5-yl)-1,2,3,4-tetrahydro-isoquinolin-8-yl]-piperazin-1-yl}-ethanone]"
5,4.83,"CC(C)Oc1ncc(N2CCc3cccc(N4CCN(C(=O)Cn5cnc6cccnc65)[C@H](C)C4)c3C2)cn1 [Example 111, 2-Imidazo[4,5-b]pyridin-3-yl-1-{(R)-4-[2-(2-isopropoxy-pyrimidin-5-yl)-1,2,3,4-tetrahydro-isoquinolin-8-yl]-2-methyl-piperazin-1-yl}-ethanone]"
6,9.53,"Cc1csc(N2CCc3cccc(N4CCN(C(=O)Cn5cnc6cccnc65)[C@H](C)C4)c3C2)n1 [Example 114, 2-Imidazo[4,5-b]pyridin-3-yl-1-{(R)-2-methyl-4-[2-(4-methyl-thiazol-2-yl)-1,2,3,4-tetrahydro-isoquinolin-8-yl]-piperazin-1-yl}-ethanone]"
7,6.49,"COc1ncc(N2CCc3cccc(N4CCN(C(=O)Cn5cnc6cccnc65)[C@H](C)C4)c3C2)cn1 [Example 118, 2-Imidazo[4,5-b]pyridin-3-yl-1-{(R)-4-[2-(2-methoxy-pyrimidin-5-yl)-1,2,3,4-tetrahydro-isoquinolin-8-yl]-2-methyl-piperazin-1-yl}-ethanone]"
8,2.03,"COc1cncc(N2CCc3cccc(N4CCN(C(=O)Cn5cnc6cccnc65)[C@H](C)C4)c3C2)n1 [Example 120, 2-Imidazo[4,5-b]pyridin-3-yl-1-{(R)-4-[2-(6-methoxy-pyrazin-2-yl)-1,2,3,4-tetrahydro-isoquinolin-8-yl]-2-methyl-piperazin-1-yl}-ethanone]"
9,4.71,"CCOc1ncc(N2CCc3cccc(N4CCN(C(=O)Cn5cnc6cccnc65)[C@H](C)C4)c3C2)cn1 [Example 123, 1-{(R)-4-[2-(2-Ethoxy-pyrimidin-5-yl)-1,2,3,4-tetrahydro-isoquinolin-8-yl]-2-methyl-piperazin-1-yl}-2-imidazo[4,5-b]pyridin-3-yl-ethanone]"
